Assay results reported in US20110281956A1, “USE OF THYMUS CAPITATUS EXTRACT, SATUREJA HORTENSIS EXTRACT, OR CARVACROL FOR TREATING METABOLIC DISEASES” (INDUSTRY-ACADEMIC COOPERATION FOUNDATION, YONSEI UNIVERSITY, priority 2009, published 2011).
“Also recorded” adds a separate entry of the source. Marks after values point to notes of the source that are not given here.

Assays:
[1] = tested on: preadipocytes 3T3-L1; assay: Adipocyte differentiation inhibition, Oil Red O staining; assay type: cell-based, mouse; conditions: 14 days
Procedure: The effect of carvacrol […] on adipocyte differentiation and growth was investigated using mouse adipocytes (3T3-L1). Preadipocytes 3T3L1 were placed on a 12-well plate and cultured to confluency in a 5% CO2 incubator at 37° C. using DMEM containing 1% penicillin-streptomycin, 1% non-essential amino acids and 10% fetal bovine serum (FBS). The cultured 3T3-L1 cells were differentiated into adipocytes by culturing for 2 days in a medium containing 0.5 mM methylisobutylxanthine/1 μM dexamethasone/1 μg/mL insulin (DMI). The cells were differentiated into mature adipocytes by further culturing for 2 days in DMEM containing 1 μg/mL insulin. Subsequently, they were further cultured for 10 days while changing DMEM every other day to obtain fully differentiated adipocytes.
Starting from the day when DMI was added to the 3T3-L1 cells, carvacrol was treated at concentrations of 0.1, 1, 10, 50 and 100 μM every other day. Carvacrol was purchased from Sigma and used after dissolving in DMSO. For negative control, only DMSO was used. After the culturing for a total of 14 days, when the cells were fully differentiated, the medium was removed and the fats contained in the differentiated adipocytes were stained. […]
To measure the triglyceride level of the differentiated 3T3-L1 cells, the stained cells were dissolved in 1 mL of isobutanol and OD value was measured at 600 nm.

[2] = tested on: C57BL/6J mice on high-fat diet; assay: Carvacrol-containing high-fat diet fed to mice for 10 weeks: abdominal fat, blood lipids, glucose, insulin, liver lipids; assay type: in vivo, mouse
Procedure: High-fat diet (HFD: 40% fat calorie, 17 g lard+3% corn oil/100 g diet) was used to induce obesity. Carvacrol-containing diet had the same composition as the HFD except for containing 0.1% carvacrol. Normal diet (ND) was prepared according to AIN-76 rodent diet (see Table 1).
5-week-old male C57BL/6J mice were accustomed to the laboratory environment for a week while feeding solid feed. They were randomly divided into the ND, HFD and carvacrol groups according to the randomized block design and reared for 10 weeks. Diet was provided between 10 and 11 a.m. every day along with water. Food intake was measured every day, and body weight was measured every 3 days. In order to avoid transient body weight increase due to feed intake, body weight was measured 2 hours after removing the feedbox.
After fasting the test animal for at least 12 hours and anesthetizing with diethyl ether, blood, liver and abdominal fat tissue (epididymal, perirenal, mesenteric and retroperitoneal fat) were taken and weighed after washing with 0.1 M PBS (pH 7.4). The blood taken from the abdominal aorta was centrifuged at 1000×g for 15 minutes to isolate the serum.
Total cholesterol level, triglyceride level, glucose level and insulin level in plasma and lipid components in liver tissue were measured as follows. Total cholesterol level, triglyceride level and glucose level in plasma were measured 2 times using a commercially available kit (Bio Clinical System), and insulin level was measured by ELISA using a mouse Insulin kit (Shibayali, Japan). Lipid components were extracted from liver tissue according to Folch et al.'s method (Folch J, Lees M, Sloane Stanley G H. A simple method for the isolation and purification of total lipids from animal tissues. J. Biol. Chem. 1957; 226: 497-509) as follows. After adding 1 mL of distilled water to 0.25 g of liver tissue, the liver tissue was homogenized using a Polytron homogenizer (IKA-WERKE GmbH & Co., Ultra-Turrax, Staufen, Germany). After adding 5 mL of a chloroform/methanol mixture solution (2:1, v/v) to the homogenate and mixing well, centrifugation was performed at 1000×g for 10 minutes. Then, after separating the pellets and adding 2 mL of the chloroform/methanol mixture solution (2: 1, v/v) again to the supernatant, the same procedure was repeated to completely isolate the lipid components. After adding 3 mL of a chloroform/methanol/0.05% CaCl2 mixture solution (3:48:47, v/v/v) to thus obtained pellets and mixing for 1 minute, centrifugation was performed at 1000×g for 10 minutes. Finally, the resulting pellets were completely dried using nitrogen gas and the dried lipids were dissolved in 1 mL of methanol for analysis of the lipid components. Triglyceride level of the liver tissue was measured as in the plasma analysis using the same commercially available kit (Bio Clinical System).
In Table 2, the characters a, b and c indicate significance according to one-way ANOVA and Duncan's multiple range test (p<0.001). The atherogenic index was calculated by (total cholesterol−HDL cholesterol)/HDL cholesterol, and the insulin resistance index was calculated by 10^−3 pmol insulin×mmol glucose×L^−2.

[3] = tested on: leiomyosarcoma cells isolated from rats cancer-induced with 3,4-benzopyrene; conditions: carvacrol at 67 μM for 24 hours or at 90 μM for 48 hours; cited from earlier work
[4] = 0.1% carvacrol in high-fat diet
[5] = 0.1% carvacrol in high-fat diet, FIG. 2
[6] = blood (plasma), 0.1% carvacrol in high-fat diet
[7] = liver tissue, 0.1% carvacrol in high-fat diet

With `Cc1ccc(C(C)C)cc1O` [Carvacrol, carvacrol] the “fats stained with Oil Red O, OD value at 600 nm (cellular fat content)” value ([1]; 0.1-100 μM, FIG. 1B) was “decreased the cellular fat content in a concentration-dependent manner; also recorded: decrease in OD value in a concentration-dependent manner”, the “concentrations at which differentiation of the preadipocytes 3T3-L1 was decreased” value ([1]; concentration-dependent, 0.1, 1, 10, 50 and 100 μM every other day, FIG. 1A) was ≥ 10 µM and the Liver weight [2, 4] was 4.1 ± 0.1^b g/100 g body wt. The “decrease in LDL+VLDL cholesterol level in plasma (serum) vs HFD” value [2, 4] was 46%, the “decrease in atherogenic index vs HFD” value [2, 4] was 44% and the “decrease in cholesterol level in liver tissue vs HFD” value [2, 4] was 42%. The “decrease in free fatty acid level in liver tissue vs HFD” value [2, 4] was 58%, the “decrease in free fatty acid level in plasma (serum) vs HFD” value [2, 4] was 80% and the “decrease in liver weight (liver-to-body weight ratio) vs HFD” value [2, 4] was 25%. The “decrease in total cholesterol level in plasma (serum) vs HFD” value [2, 4] was 29%, the “decrease in triglyceride level in liver tissue vs HFD” value [2, 4] was 48% and the “decrease in triglyceride level in plasma (serum) vs HFD” value [2, 4] was 30%. The “fasting blood sugar as compared to the HFD group” value [2, 4] was “significant decrease”, the “insulin level as compared to the HFD group” value [2, 4] was “significant decrease” and the “insulin resistance index as compared to the HFD group” value [2, 4] was “significant decrease”. For the same compound, the “decrease in epididymal fat weight vs HFD” value [2, 5] was 31%, the “decrease in mesenteric fat weight vs HFD” value [2, 5] was 51% and the “decrease in perirenal fat weight vs HFD” value [2, 5] was 54%. The “decrease in retroperitoneal fat weight vs HFD” value [2, 5] was 23%, the “decrease in total abdominal fat weight vs HFD” value [2, 5] was 36% and the Insulin resistance index ([2]; 10^−3 pmol insulin×mmol glucose×L^−2, 0.1% carvacrol in high-fat diet) was 0.68 ± 0.08^b. The Atherogenic index ([2]; (total cholesterol−HDL cholesterol)/HDL cholesterol, 0.1% carvacrol in high-fat diet) was 0.57 ± 0.18^b, the Insulin ([2]; ELISA, 0.1% carvacrol in high-fat diet) was 0.58 ± 0.06^b ng/mL and the Free fatty acid [2, 6] was 280 ± 35^c uEq/L. For the same compound, the HDL cholesterol [2, 6] was 1.68 ± 0.16^ab mmol/L, the “LDL + VLDL cholesterol” value [2, 6] was 1.11 ± 0.05^b mmol/L and the Total cholesterol [2, 6] was 2.73 ± 0.30^b mmol/L. The Triglyceride [2, 6] was 0.98 ± 0.14^b mmol/L, the Glucose ([2]; fasting, blood (plasma), 0.1% carvacrol in high-fat diet) was 6.83 ± 0.31^b mmol/L and the Cholesterol [2, 7] was 45.4 ± 5.5^b μmol/g. For the same compound, the Free fatty acid [2, 7] was 10.3 ± 0.73^b uEq/g, the Triglyceride [2, 7] was 22.0 ± 6.0^b μmol/g and the “production of the final product of platelet aggregation thromboxane B2” value [3] was “decreased”. The “proliferation of cancer cells” value [3] was “inhibited”.
